# Measured values from patent publication US8962558B2, “Methods for reducing GnRH-positive tumor cell proliferation using the GnRH antagonist IN3” (priority 1997, dated 2015).
# Where two headings read alike, the source gives them in different places.
# Experiments:
# [1] = tested on: malignant gliomas U-87MG and U-373MG; test: In vivo study with tumor-implanted nude mice (Example 4); settings: daily dosages
# Protocol: An effect of the treatment of tumor-implanted nude mice (Pinski et al., supra) each with one of the GnRH agonists Buserelin, Triptorelin, Goserelin, and Leuprorelin and each with one of the GnRH antagonists Cetrorelix® (SB-75), Antarelix®, Antide®, and Ramorelix® on the growth of malignant gliomas U-87MG and U-373MG was carried out using daily dosages and controls in nude mice using analysis techniques described for the determination of the efficacy of similar peptides in Pinski et al., supra.
# [2] = tested on: BLM melanoma cells; test: Matrigel gel assay (invasion); assay type: cell-based, human; settings: 10^−6 M; 4, 8 and 12 days
# Protocol: This dose has been also used in previous papers analyzing the interaction between GnRH agonists and stimulatory growth factors in prostate cancer cells. Subconfluent BLM cells were collected by trypsinization, resuspended in culture medium and seeded in 20 μL (150,000 cells/drop) on the lid of a culture dish. The lid was then placed on a dish filled with 2 mL of culture medium and incubated at 37° C. for 48 h. Matrigel solution (80 μL, 2.7 mg/mL) was pipetted onto the bottom of wells of a 24-well culture dish, and left to set at 37° C. Cell aggregates were transferred over the cushion and then overlaid with additional 20 μL of Matrigel. The aggregates into Matrigel were covered with 400 μL culture medium in the absence or in the presence of LHRH-A (10^−6 M). The aggregates were then observed daily under a light microscope and at the end of the incubation time phase-contrast pictures of the aggregates were taken.
# [3] = tested on: human glioblastoma cell lines U-87MG or U-373MG, Kaposi sarcoma cell lines KSY-1 or KS-SLK, malignant melanoma cell line MV3 or BLM, medulloblastoma cell line …; test: Proliferation assay on cell cultures (Example 3); assay type: cell-based; settings: cell lines of Example 3 treated with the substance
# [4] = tested on: BLM melanoma cells; test: Chemomigration assay (Boyden's chamber); assay type: cell-based, human; settings: 10^−6 M pretreatment for 5 days, FBS 5%
# Protocol: The assay was performed using a 48-well Boyden's chamber, according to the manufacturer's instruction (Neuroprobe, Cabin John, Md.). Subconfluent BLM cells, grown in culture medium, were pretreated for 5 days with LHRH-A (10^−6 M) and harvested at the end of the treatment. BLM cell suspensions (10^5 cells/50 μL), resuspended in culture medium deprived of FBS, were placed in the open-bottom wells of the upper compartment of the chamber. Each pair of wells were separated by polyvinylpyrrolidone-free polycarbonate porous membrane (8-μm pores) pre-coated with gelatin (0.2 mg/mL in PBS). The chemoattractant (FBS 5%) was placed in the lower compartment of the chamber. The chamber was then kept for 4 h in the cell culture incubator. After that, the cells migrated through the pores, and adhered to the underside of the membrane, were fixed, stained (Diff-Quick kit, DADE, Dudingen, CH) and mounted onto glass slides. For quantitative analysis, six random objective fields of stained cells were counted for each well (8 wells/experimental group) and the mean number of migrating cells/mm^2 was calculated. The data obtained from four independent experiments were compared by ANOVA and Dunnett's test.
# [5] = tested on: U-87MG cells; assay type: cell-based, human; settings: for inhibition versus controls: 7 days
# Protocol: U-87MG cells were plated at a density of 1400 cells/cm^2 in […] in standard culture medium. Cells were allowed to attach and start growing for 3 days; the seeding media were then changed to experimental media. Cells were treated for 7 days with ZOLADEX® (10^−10-10^−6 M); medium was changed every two days. Following treatment, cells were collected and counted by hemocytometer. Data obtained from three independent experiments were analyzed according to the Dunnett's test after one-way ANOVA.
compound,measurement,setting,value
"CC(C)C[C@H](NC(=O)[C@@H](COC(C)(C)C)NC(=O)[C@H](Cc1ccc(O)cc1)NC(=O)[C@H](CO)NC(=O)[C@H](Cc1c[nH]c2ccccc12)NC(=O)[C@H](Cc1cnc[nH]1)NC(=O)[C@@H]1CCC(=O)N1)C(=O)N[C@@H](CCCNC(=N)N)C(=O)N1CCC[C@H]1C(=O)NNC(N)=O [ZOLADEX®, D-Ser(tBu)^6Aza-Gly-LHRH]",growth of malignant gliomas,[1],Significant growth-inhibiting effects
same,migration of the cells through the Matrigel,[2],completely abrogates
same,anti-proliferative effects in tumor cells,[3],Significant anti-proliferative effects
same,number of cells that migrate in response to the chemoattractant,[4],significantly decreased
same,inhibition versus controls,[5]; 10^−6M,about 45%
same,inhibition versus controls,[5]; 10^−8M,about 23%
same,proliferation rate,[5]; significantly effective at 10^−8 to 10^−6 M,significant decrease of the proliferation rate
